SMILES | melting point [°C]
O=[N+]([O-])c1ccccc1SN(CCO)CCO | 82 to 86
CC[C@@H]1C(=O)N(c2ccc(C#N)c(Cl)c2)[C@@H](C)[C@H]1O | 109 to 110
CCCCCCC(=O)N[C@H](CCC(=O)O)C(=O)O | 92 to 96
Cc1ccc2c(c1)c(N1CCN(C(=O)c3ccco3)CC1)c(C#N)c(=O)n2C | 231
CCOc1ccccc1-c1ccc2c(c1)C=C(C(=O)Nc1ccc(CN(C)C3CCOCC3)cc1)CCS2(=O)=O | 171 to 173
Cc1ccc(S(=O)(=O)N2CC[C@@H](O)C2)cc1 | 108 to 112
O=C(O)c1ccc(OS(=O)(=O)C(F)(F)F)cc1 | 178 to 180
CC(C)(C)OC(=O)N1CCC[C@@H](O)[C@H](C(=O)O)C1 | 98.5 to 102
Cc1ccc(NC(=O)c2ccc(CN3CCN(C)C(=O)C3)cc2)cc1Nc1nccc(-c2cccnc2)n1 | 187 to 192
COc1ccc2c(CBr)c(Br)ccc2c1C(F)(F)F | 142 to 143
N#Cc1cn(C2OC(CO)C(O)C2O)c2ncn(O)c(=O)c12 (stereo not given) | 229 to 231
CCCCCNc1ccc(OC2CCN(C(C)=O)CC2)cc1 | 69 to 71
C=C(F)C(=O)Oc1c(Br)cc(C#N)cc1Br | 135 to 138
O=C(Nc1ccc(O)cc1)c1cc(O)cc(O)c1 | 266
O=C1CC(c2cccc(-n3ccnn3)c2)=Nc2ccc(-c3ccc(F)cc3)cc2N1 | 218 to 220
CCS(=O)(=O)Nc1cccc(C(=C(C)C)c2c[nH]cn2)c1 | 152 to 155
Cc1ccc2[nH]c(=O)n(CCS)c(=O)c2c1 | 309 to 311
O=C(O)Cc1c(C(=O)O)c2cc(Oc3ccc(C(F)(F)F)cc3)ccc2n1-c1ccc(OC(F)(F)F)cc1 | 257 to 259
N#Cc1nn(-c2c(Cl)cc(C(F)(F)F)cc2Cl)cc1C=C(Cl)Cl | 99 to 101
CC1(C)N=C(c2ccccc2F)c2cc(C#N)ccc2NC1=O | 206
CC(C)c1nnc(-c2ccc(-c3ccccc3)cc2)n1-c1ccccc1F | 201 to 204
O=C(OCc1ccccc1)c1ccc(OCc2ccccc2)cc1OCc1ccccc1 | 118 to 120

SMILES | melting point [°C]
N#CC1CN1C(=O)CNC(N)=O (stereo not given) | 110 to 114
O=c1cnc2c([N+](=O)[O-])c(Cl)c(Cl)cc2[nH]1 | 330 to 332
O=CC(=Cc1ccc(OC(=O)c2ccc(Br)cc2)cc1)C(C=O)=Cc1ccc(OC(=O)c2ccc(Br)cc2)cc1 | 223 to 225
Cc1ccc(-c2nc(N3CCOCC3)c3c(C)c(C#N)sc3n2)cc1 | 206 to 207
O=C(Cn1cc[nH]c(=O)c1=O)OC(c1ccccc1)c1ccccc1 | 97 to 98
O=C1Cc2cc3ccccc3nc2N1 | 261
Brc1ccc(-c2ccc(Br)cc2I)c(I)c1 | 89
NC(=O)c1c(Cl)c(-c2ccccc2)n2c1CN(C(=O)CCC1CCCC1)CC2 | 172 to 174
O=C(O)c1ncn2c1[C@@H]1CCN1C(=O)c1cc(F)ccc1-2 | 159 to 160
O=C(O)[C@H]1CN(C(=O)OCc2ccccc2)CCN1c1cc(Cl)ccc1[N+](=O)[O-] | 145 to 155
Fc1ccc(-n2cc(OCCN3CCCCC3)c3cc(Cl)ccc32)cc1 | 82 to 84
Cc1c(C2=NOC(CN3CCC(Cc4ccc(F)cc4)CC3)C2)cc2oc(=O)[nH]c2c1Cl (stereo not given) | 131 to 132
O=C(c1ccc(OCCCl)cc1)N1CCOCC1 | 102 to 104
OCc1nccc(N2CCOCC2)c1Cl | 80 to 82
Cc1cc(Cn2nnn(-c3cc(C(F)(F)F)cc(C(F)(F)F)c3)c2=O)ccc1N | 129 to 130
COc1nc(C)c(C(C)=O)cc1NC(=O)N1CCN(c2cc(C)cc(C)c2)CC1 | 66 to 69
CC(C)COCCOc1ccc(OCC(O)CNCCNC(=O)N2CCOCC2)cc1 (stereo not given) | 95 to 96
CC(=O)Nc1nnnn1CC(I)=C(I)I | 178 to 185
N#Cc1ccc[nH]c1=S | 243 to 246
O=c1nc(-c2ccccn2)sc2cc(C(F)(F)F)ccc12 | 176 to 177
CN(C)CC(=O)NCc1nc(C(=O)N(C)C)nn1-c1ccc(Cl)cc1C(=O)c1ccccc1Cl | 122 to 124
O=C(c1cc2cc3[nH]c(=O)oc3cc2[nH]1)N1CCC(Cc2ccc(F)cc2)CC1 | 244 to 247

SMILES | melting point [°C]
Nc1nccc2cc(O)ccc12 | 258 to 260
O=S(=O)(c1ccc(F)cc1)C(c1cc(F)ccc1F)c1cc(NCCO)ncc1Cl (stereo not given) | 157 to 158
Cn1cncc1C(O)(c1ccc(C(=O)O)cc1)c1ccc2c(c1)c(-c1cccc(Cl)c1)cc(=O)n2C (stereo not given) | > 260
COc1ccc2cc3c(c(-c4ccc(C(F)(F)F)cc4)c2c1)CNC3=O | 219 to 221
O=P(O)(O)Cc1ccccc1CP(=O)(O)O | > 300
Cc1cccnc1-c1cc2cccnc2c(Cl)n1 | 130 to 131
O=C1CCCN1C(=O)Oc1cccc(Br)c1 | 95 to 96
COCCNc1cncc(C(N)=O)c1 | 79 to 80
CSC(=N)Nc1c(C)cccc1Cl | 183 to 184
NC(=O)c1nnn(Cc2ccc(Cl)c(C(Cl)=C(Cl)Cl)c2)c1N | 174 to 175
CCOC(=O)c1ncoc1-c1cc(OC)c(OC)c([N+](=O)[O-])c1 | 109 to 110
O=c1[nH]c2ccccc2n1CCN1CCCCC1 | 123 to 125
CCC1(C)CC2(NC(=O)N(C)C2=O)C(C)C(C)(CC)N1 (stereo not given) | 137 to 142
CCOC(=O)C(C)ON1CCNC1=Nc1c(Cl)cccc1Cl (stereo not given) | 79 to 80
CC(=O)N1CCN(C(C)c2ccc(-c3ccc(Cl)cc3)cc2)CC1 (stereo not given) | 120 to 121
COc1cc2c(cc1O)CCN(Cc1cc(OC)c(OC)cc1OC)C2 | 152 to 153
O=c1cc(NCCN2CCN(c3cccc4c3OCCO4)CC2)cn[nH]1 | 244 to 246
OC(CCN1CCCC1)c1ccc(C2CCCCC2)c(Cl)c1 (stereo not given) | 90
COCCn1cc(C(=O)O)c2c(Cl)cccc21 | 142 to 145
CCNC(=O)c1ccc(C=C(C)c2ccc3c(c2)C(C)(C)CCO3)cc1 | 161 to 163

Other lines, results leading:

melting point [°C] | SMILES
135 to 137 | C#Cc1cc(C(=O)NC(C)CCCc2cccnc2)ccc1-c1ccc(OC)c(OC)c1 (stereo not given)
206 to 209 | O=C(Nc1ccc2c3c(oc2c1)CCC(O)C3O)c1c(Cl)cccc1Cl (stereo not given)
> 295 | O=C(O)c1ccc(N2Cc3ccccc3C2=O)cc1
68 to 69.5 | Cc1cc(OCCCCOCc2ccccc2)cc(C)c1N=Nc1ccc([N+](=O)[O-])cc1
39 to 40 | CCCCNC(=O)Oc1ccccc1
74 to 76 | CCCC=Cc1c(CC)nc(CC)c(CO)c1-c1ccccc1
181 to 182 | CN(c1cccc2cc(C(=O)NCC(C)(C#N)SCc3ccccc3)[nH]c12)S(=O)(=O)c1cccs1 (stereo not given)
180 | CCOC(=O)CCNc1nc2c(C)cc(C)cc2n1Cc1nc(C)ccc1O
238 | Cc1ccc(-c2nc(CN3CCN(C(c4ccccc4)c4ccccc4)CC3)c(C)[nH]2)cc1
164 | CCCNc1c2c(nc3ccccc13)CCCC2O (stereo not given)
135 to 137 | CCCOC(Cc1ccc(OCCc2nc(C(C)(C)C)oc2C)c2ccccc12)C(=O)O (stereo not given)
53 to 56 | CCCCc1c(C(=O)N(C)Cc2ccc3c(Br)c(O)ccc3c2)oc2ccccc12
86 to 91 | COc1cc(OCc2ccccc2)ccc1/C=C/c1cc(/C=C/c2ccc3cc[nH]c3c2)[nH]n1
114 to 118 | COc1cccc(OC)c1C(=O)Nc1ccc(OCCN2CCCCC2)cc1
120 to 121 | CCOP(=O)(CNC(Cc1ccc(Cl)cc1)c1cc(C(C)(C)C)c(O)c(C(C)(C)C)c1)OCC (stereo not given)
131 to 132 | O=C(NCc1ccc(Cl)cc1)c1ccccc1S
299 to 301 | CCCCc1nc2cc(C(=O)O)cc(C(=O)O)c2n1Cc1ccccc1Cl
80 to 83 | CCc1nc(-c2ccccc2)n(CC(C)(OC)OC)c(=O)c1C

melting point [°C] | SMILES
141 to 142 | CC1(C)OC(=O)C(Oc2ccc3ccccc3n2)=C1c1ccc(S(C)(=O)=O)cc1
142 to 146 | O=C(O)c1ccc(N2CCCCC2)c(NC(=O)C(CS)Cc2ccccc2)c1 (stereo not given)
195 to 197 | CC(C)S(=O)(=O)c1ccccc1Nc1nc(Nc2ccc3c(c2)C(C)(C)CCC(=O)N3C)ncc1Cl
86 | CCOC(=O)CN(c1ccc(Cl)cc1C(O)c1ccccc1Cl)S(=O)(=O)c1ccc(OC)c(OC)c1 (stereo not given)
135 to 137 | COc1ccc2[nH]c(C=Cc3ccccc3Cl)cc2c1
131 to 133 | COCCCOc1ccc(/C=C/C(=O)O)c(Oc2ncc(C(F)(F)F)cc2Cl)c1
106 to 108 | CCCc1c(OCCCOc2ccc(CC(=O)O)cc2)ccc(C(C)=O)c1O
173 to 175 | CCOC(=O)CN1C(=O)[C@@H](N)[C@H](c2ccccc2)Sc2cc(Cl)ccc21 (relative stereo)
116 to 117 | CC(C)c1cccc(C(C)C)c1NC(=O)CNC(c1ccccc1)c1ccc(N(C)C)cc1 (stereo not given)
85 to 89 | CCCCCCCCCCCCc1c[nH]c2cc(C(=O)OC)ccc12
170 to 175 | CC(NC(=O)C1C(CO)N(Cc2ccccc2)C(=O)N1Cc1ccccc1)c1ccc2ccccc2c1 (stereo not given)
98 to 99 | Clc1ccc(Nc2nc3ccccc3o2)c(Cl)c1
152 to 153 | CC(=O)c1c(C)nc(N(Cc2ccccc2)Cc2ccccc2)c(N)c1NCCc1ccccc1
185 to 187 | O=C(O)CCc1oc(Sc2nccn2-c2ccccc2)nc1-c1ccc(Cl)cc1
210 | Cc1ccc(C(=O)Nc2ccc(C[C@H](NC(=O)Nc3ccccc3S(=O)(=O)c3ccccc3)C(=O)O)cc2)c(Cl)n1
111 to 113 | CCCCCCCCOC(=O)c1cc(=O)c2c3c(ccc2o1)-c1ccc(Cl)cc1C(C)(C)O3
130 to 132 | CCc1nc(/C=C/c2cn(-c3ccccc3)nc2OCc2ccc(OCc3nc(-c4cccc(CO)c4)oc3C)c(OC)c2)cs1
108 to 109 | CCCOc1ccccc1OS(=O)(=O)NC(=O)Nc1nc(OC)cc(OC)n1
